Values joined by “and” are separate entries in the source; they are usually repeats but may differ in a detail not shown here. Identical values can stand only once. “Also recorded” adds a separate entry of the source.
Legend:
diaphorase [1] = assay: Effect of concentrations of tetrazolium salts on formation of formazan dyes (FIGS. 4A-4G); type: biochemical; conditions: 15 mM NADH+H, 20 μg diaphorase, pH 7.5; FIGS. 4A to 4G
Procedure: On the idea that higher concentrations of tetrazolium salts in the assay buffer would likely result in more formazan dyes in the reaction, various concentrations of tetrazolium salts were added to a reaction buffer and the formation of formazan dyes were measured at 0, 30 and 60 minutes. […] The reactions were performed at room temperature. Absorbance was taken at 0, 30 and 60 minutes.

oral lavage [2] = assay: Formation of formazan dyes: oral lavage, malate and diaphorase (TABLE 12); type: biochemical, human; conditions: oral lavage, malate and diaphorase
Malate dehydrogenase [3] = target: T1, Malate dehydrogenase (Sus scrofa, UniProt P00346); assay: Formation of formazan dyes: Malate dehydrogenase and 1-Methoxy PMS, absence of malate (TABLE 17); type: biochemical, pig heart; parameters: L-malate dehydrogenase (pig heart); purchased Sigma-Aldrich 10127248001 / 10127914001
T1 sequence (P00346 25-338): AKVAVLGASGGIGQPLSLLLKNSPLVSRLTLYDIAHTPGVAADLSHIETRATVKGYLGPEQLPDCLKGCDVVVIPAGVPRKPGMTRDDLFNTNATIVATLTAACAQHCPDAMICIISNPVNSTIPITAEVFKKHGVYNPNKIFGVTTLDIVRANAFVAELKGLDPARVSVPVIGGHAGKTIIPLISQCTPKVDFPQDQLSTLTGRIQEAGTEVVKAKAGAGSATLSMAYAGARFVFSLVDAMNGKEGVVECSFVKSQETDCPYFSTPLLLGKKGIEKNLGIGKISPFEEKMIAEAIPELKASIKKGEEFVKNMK

oral lavage [4] = assay: Formation of formazan dyes: oral lavage and 1-Methoxy PMS, absence of malate (TABLE 19); type: biochemical, human; conditions: monosodium salt
diaphorase [5] = assay: Formation of formazan dyes: only diaphorase, not malate (TABLE 13); type: biochemical, Clostridium kluyveri; conditions: mean of three experiments
diaphorase [6] = assay: Formation of formazan dyes: NADH and diaphorase, absence of malate (TABLE 7); type: biochemical, Clostridium kluyveri; conditions: NADH and diaphorase, absence of malate
[7] = Formation of formazan dyes: control buffer, malate and 1-Methoxy PMS (TABLE 22); type: biochemical
[8] = Formation of formazan dyes: NADH and 1-methoxy PMS, absence of malate (TABLE 15); type: biochemical; conditions: monosodium salt
oral lavage [9] = assay: Formation of formazan dyes: oral lavage and diaphorase, not malate (TABLE 11); type: biochemical, human
[10] = tested on: Malate dehydrogenase and diaphorase; assay: Formation of formazan dyes: Malate dehydrogenase and diaphorase, absence of malate (TABLE 9); type: biochemical, pig heart
oral lavage [11] = assay: Formation of formazan dyes: oral lavage, malate and 1-Methoxy PMS (TABLE 20); type: biochemical, human; conditions: monosodium salt
Malate dehydrogenase [12] = target: T1, Malate dehydrogenase; assay: Formation of formazan dyes: Malate dehydrogenase, malate and 1-Methoxy PMS (TABLE 18); type: biochemical, pig heart; parameters: L-malate dehydrogenase (pig heart); purchased Sigma-Aldrich 10127248001 / 10127914001; conditions: monosodium salt
[13] = Formation of formazan dyes: control buffer and 1-Methoxy PMS, absence of malate (TABLE 21); type: biochemical; conditions: monosodium salt
diaphorase [14] = assay: Formation of formazan dyes: NADH, diaphorase and malate (TABLE 8); type: biochemical, Clostridium kluyveri
diaphorase [15] = assay: Formation of formazan dyes: only diaphorase and malate (TABLE 14); type: biochemical, Clostridium kluyveri; conditions: mean of three experiments
[16] = Formation of formazan dyes: NADH, malate and 1-methoxy PMS (TABLE 16); type: biochemical; conditions: monosodium salt
[17] = tested on: Malate dehydrogenase and diaphorase; assay: Formation of formazan dyes: Malate dehydrogenase, diaphorase and malate (TABLE 10); type: biochemical, pig heart

**Q.** With `COc1cc([N+](=O)[O-])ccc1-[n+]1nc(-c2ccccc2S(=O)(=O)O)nn1-c1ccc([N+](=O)[O-])cc1` [EZMTT] as the molecule, how does the “concentration of tetrazolium salt at which absorbance reached peaks” value (diaphorase [1]) read?
**A.** 2 mM

**Q.** Which results are given for `O=[N+]([O-])c1ccc(-[n+]2nc(-c3ccc(S(=O)(=O)[O-])cc3S(=O)(=O)[O-])nn2-c2ccc(I)cc2)cc1.[Na+]` [WST-1, 2-(4-Iodophenyl)-3-(4-nitrophenyl)-5-(2,4-disulfophenyl)-2H-tetrazolium, monosodium salt]?
**A.** Formation of formazan dyes, absorbance, Means 0 h (oral lavage [2]; 0 h): 0.88; Formation of formazan dyes, absorbance, Means 1 h (oral lavage [2]; 1 h): 1.19; Formation of formazan dyes, absorbance, Means 2 h (oral lavage [2]; 2 h): 1.19; Formation of formazan dyes, absorbance, Means 3 h (oral lavage [2]; 3 h): 1.23; Formation of formazan dyes, absorbance, Means 4 h (oral lavage [2]; 4 h): 1.39; Formation of formazan dyes, absorbance, Means 6 h (oral lavage [2]; 6 h): 1.31; Formation of formazan dyes, absorbance, Means 8 h (oral lavage [2]; 8 h): 1.52; Formation of formazan dyes, absorbance, Means 10 h (oral lavage [2]; 10 h): 1.61; Formation of formazan dyes, absorbance, Means 12 h (oral lavage [2]; 12 h): 1.75; reduction by malate dehydrogenase alone (Malate dehydrogenase [3]): did not catalyze the reduction; Absorbance, formation of formazan dyes (Means) (Malate dehydrogenase [3]; monosodium salt): 0.51 and 0.71 and 0.59 and 0.90; Absorbance, formation of formazan dyes (Means) (oral lavage [4]): 1.19 and 1.52 and 1.61 and 1.76; Absorbance, formation of formazan dyes (Means) (diaphorase [5]; 0 h): 0.41; Absorbance, formation of formazan dyes (Means) (diaphorase [5]; 1 h): 0.60; Absorbance, formation of formazan dyes (Means) (diaphorase [5]; 2 h): 0.66; Absorbance, formation of formazan dyes (Means) (diaphorase [5]; 3 h): 0.69; Absorbance, formation of formazan dyes (Means) (diaphorase [5]; 4 h): 0.70; Absorbance, formation of formazan dyes (Means) (diaphorase [5]; 6 h): 0.71; Absorbance, formation of formazan dyes (Means) (diaphorase [5]; 8 h): 0.73; Absorbance, formation of formazan dyes (Means) (diaphorase [5]; 10 h): 0.69; Absorbance, formation of formazan dyes (Means) (diaphorase [5]; 12 h): 0.67; Formation of formazan dyes, absorbance, Means 0 h (diaphorase [6]; 0 h): 3.54; Formation of formazan dyes, absorbance, Means 1 h (diaphorase [6]; 1 h): 3.60; Formation of formazan dyes, absorbance, Means 2 h (diaphorase [6]; 2 h): 3.59; Formation of formazan dyes, absorbance, Means 3 h (diaphorase [6]; 3 h): 3.60; Formation of formazan dyes, absorbance, Means 4 h (diaphorase [6]; 4 h): 3.59; Formation of formazan dyes, absorbance, Means 6 h (diaphorase [6]; 6 h): 3.59; Formation of formazan dyes, absorbance, Means 8 h (diaphorase [6]; 8 h): 3.55; Formation of formazan dyes, absorbance, Means 10 h (diaphorase [6]; 10 h): 3.52; Formation of formazan dyes, absorbance, Means 12 h (diaphorase [6]; 12 h): 3.45; Means absorbance 0 h [7]: 0.31; Means absorbance 1 h [7]: 0.31; Means absorbance 2 h [7]: 0.32; Means absorbance 3 h [7]: 0.32; Absorbance, formation of formazan dyes (Means) [8]: 2.52 and 2.71 and 2.59 and 2.80; Formation of formazan dyes, absorbance, Means 0 h (oral lavage [9]; oral lavage and diaphorase, not malate, 0 h): 1.01; Formation of formazan dyes, absorbance, Means 1 h (oral lavage [9]; oral lavage and diaphorase, not malate, 1 h): 1.24; Formation of formazan dyes, absorbance, Means 2 h (oral lavage [9]; oral lavage and diaphorase, not malate, 2 h): 1.28; Formation of formazan dyes, absorbance, Means 3 h (oral lavage [9]; oral lavage and diaphorase, not malate, 3 h): 1.30; Formation of formazan dyes, absorbance, Means 4 h (oral lavage [9]; oral lavage and diaphorase, not malate, 4 h): 1.29; Formation of formazan dyes, absorbance, Means 6 h (oral lavage [9]; oral lavage and diaphorase, not malate, 6 h): 1.42; Formation of formazan dyes, absorbance, Means 8 h (oral lavage [9]; oral lavage and diaphorase, not malate, 8 h): 1.34; Formation of formazan dyes, absorbance, Means 10 h (oral lavage [9]; oral lavage and diaphorase, not malate, 10 h): 1.31; Formation of formazan dyes, absorbance, Means 12 h (oral lavage [9]; oral lavage and diaphorase, not malate, 12 h): 1.42; reduction to formazan dyes by pooled oral lavage (oral lavage [9]; pooled oral lavage of high bleeder group, diaphorase, no added malate (TABLE 11)): partially reduced to formazan dyes; Formation of formazan dyes, absorbance, Means 0 h ([10]; Malate dehydrogenase and diaphorase, absence of malate, 0 h): 0.76; Formation of formazan dyes, absorbance, Means 1 h ([10]; Malate dehydrogenase and diaphorase, absence of malate, 1 h): 1.13; Formation of formazan dyes, absorbance, Means 2 h ([10]; Malate dehydrogenase and diaphorase, absence of malate, 2 h): 1.28; Formation of formazan dyes, absorbance, Means 3 h ([10]; Malate dehydrogenase and diaphorase, absence of malate, 3 h): 1.38; Formation of formazan dyes, absorbance, Means 4 h ([10]; Malate dehydrogenase and diaphorase, absence of malate, 4 h): 1.47; Formation of formazan dyes, absorbance, Means 6 h ([10]; Malate dehydrogenase and diaphorase, absence of malate, 6 h): 1.60; Formation of formazan dyes, absorbance, Means 8 h ([10]; Malate dehydrogenase and diaphorase, absence of malate, 8 h): 1.71; Formation of formazan dyes, absorbance, Means 10 h ([10]; Malate dehydrogenase and diaphorase, absence of malate, 10 h): 1.78; Formation of formazan dyes, absorbance, Means 12 h ([10]; Malate dehydrogenase and diaphorase, absence of malate, 12 h): 1.75; reduction of tetrazolium dye in the absence of substrate malate ([10]; malate dehydrogenase and diaphorase (TABLE 9)): partially reduced; Absorbance, formation of formazan dyes (Means) (oral lavage [11]): 1.20 and 1.68 and 2.01 and 2.32; Absorbance, formation of formazan dyes (Means) (Malate dehydrogenase [12]): 0.51 and 0.64 and 0.72 and 0.79; Absorbance, formation of formazan dyes (Means) [13]: 0.53 and 0.74 and 0.65 and 0.88; Formation of formazan dyes, absorbance, Means 0 h (diaphorase [14]; NADH, diaphorase and malate, 0 h): 2.63; Formation of formazan dyes, absorbance, Means 1 h (diaphorase [14]; NADH, diaphorase and malate, 1 h): 2.60; Formation of formazan dyes, absorbance, Means 2 h (diaphorase [14]; NADH, diaphorase and malate, 2 h): 2.59; Formation of formazan dyes, absorbance, Means 3 h (diaphorase [14]; NADH, diaphorase and malate, 3 h): 2.57; Formation of formazan dyes, absorbance, Means 4 h (diaphorase [14]; NADH, diaphorase and malate, 4 h): 2.55; Formation of formazan dyes, absorbance, Means 6 h (diaphorase [14]; NADH, diaphorase and malate, 6 h): 2.52; Formation of formazan dyes, absorbance, Means 8 h (diaphorase [14]; NADH, diaphorase and malate, 8 h): 2.48; Formation of formazan dyes, absorbance, Means 10 h (diaphorase [14]; NADH, diaphorase and malate, 10 h): 2.44; Formation of formazan dyes, absorbance, Means 12 h (diaphorase [14]; NADH, diaphorase and malate, 12 h): 2.38; level reduced to formazan dyes in the presence of malate (diaphorase [14]; TABLE 8 compared with TABLE 7): lower level; Absorbance, formation of formazan dyes (Means) (diaphorase [15]; 0 h): 0.20; Absorbance, formation of formazan dyes (Means) (diaphorase [15]; 1 h): 0.22; Absorbance, formation of formazan dyes (Means) (diaphorase [15]; 2 h): 0.23; Absorbance, formation of formazan dyes (Means) (diaphorase [15]; 3 h): 0.24; Absorbance, formation of formazan dyes (Means) (diaphorase [15]; 4 h): 0.24; Absorbance, formation of formazan dyes (Means) (diaphorase [15]; 6 h): 0.25; Absorbance, formation of formazan dyes (Means) (diaphorase [15]; 8 h): 0.26; Absorbance, formation of formazan dyes (Means) (diaphorase [15]; 10 h): 0.27; Absorbance, formation of formazan dyes (Means) (diaphorase [15]; 12 h): 0.27; Absorbance, formation of formazan dyes (Means) [16]: 1.83 and 1.81 and 1.79; Formation of formazan dyes, absorbance, Means 0 h ([17]; Malate dehydrogenase, diaphorase and malate, 0 h): 0.84; Formation of formazan dyes, absorbance, Means 1 h ([17]; Malate dehydrogenase, diaphorase and malate, 1 h): 1.15; Formation of formazan dyes, absorbance, Means 2 h ([17]; Malate dehydrogenase, diaphorase and malate, 2 h): 1.31; Formation of formazan dyes, absorbance, Means 3 h ([17]; Malate dehydrogenase, diaphorase and malate, 3 h): 1.44; Formation of formazan dyes, absorbance, Means 4 h ([17]; Malate dehydrogenase, diaphorase and malate, 4 h): 1.53; Formation of formazan dyes, absorbance, Means 6 h ([17]; Malate dehydrogenase, diaphorase and malate, 6 h): 1.69; Formation of formazan dyes, absorbance, Means 8 h ([17]; Malate dehydrogenase, diaphorase and malate, 8 h): 1.81; Formation of formazan dyes, absorbance, Means 10 h ([17]; Malate dehydrogenase, diaphorase and malate, 10 h): 1.90; Formation of formazan dyes, absorbance, Means 12 h ([17]; Malate dehydrogenase, diaphorase and malate, 12 h): 1.96; conversion to reduced formazan dyes ([17]; malate dehydrogenase, diaphorase and malate (TABLE 10), monosodium salt): converted to reduced formazan dyes in a time-dependent fashion; also recorded: able to catalyze the reduction
